# Source: US9981928B2, “Aryl sulfide derivatives and aryl sulfoxide derivatives as acaricides and insecticides” (BAYER CROPSCIENCE AKTIENGESELLSCHAFT, priority 2013, dated 2018)
# Like-named read-outs stand apart in the source and are kept apart here.
# Columns and labels:
# [1] = log P determination by HPLC on reversed-phase columns (C 18), analogously to OECD Guideline 117; assay type: physicochemical; details: for chromatographic logP: reversed-phase C18 HPLC column; for logP (HCOOH): LC-MS in the acidic range, pH 2.7, 0.1% aqueous formic acid / acetonitrile; for logP (HCOOH) / logP (neutral): HPLC reversed-phase C 18; for logP (neutral): LC-MS in the neutral range, pH 7.8, 0.001 molar aqueous ammonium hydrogencarbonate / acetonitrile
# Method in brief: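 Reversed-phase C18 HPLC per OECD 117 with LC-MS detection and a linear 10→95% acetonitrile gradient. Acidic log P run at pH 2.7 with 0.1% formic acid in both eluents. Neutral log P run at pH 7.8 with 0.001 M aqueous ammonium hydrogencarbonate.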
# [2] = system: greenhouse red spider mite (Tetranychus urticae); assay: Tetranychus urticae spray test, OP-resistant (TETRUR), bean leaf disks; assay type: in vivo; details: bean leaf disks, after 6 days; for pest or weed control at 500 g/ha: Tetranychus urticae, foliar, 144 h, read-out: efficacy in %
# Method in brief: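 Bean leaf disks carrying all stages of OP-resistant Tetranychus urticae sprayed with compound in acetone/dimethylformamide diluted in emulsifier water. Kill assessed after 6 days as % efficacy, 100% meaning all mites dead.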
# [3] = acidic range, pH 2.7, 0.1% aqueous formic acid and acetonitrile, read-out: log P[a] / log P(HCOOH)
# [4] = neutral range, pH 7.8, 0.001 molar aqueous ammonium hydrogencarbonate and acetonitrile, read-out: log P[b] / log P(neutral)
SMILES,"chromatographic logP [1, 3]","chromatographic logP [1, 4]",pest or weed control at 500 g/ha ([2]; application rate 500 g/ha) [%],logP (HCOOH) [1],logP (neutral) [1],efficacy in % ([2]; application rate 500 g/ha) [%],efficacy in % ([2]; application rate 100 g/ha) [%]
"Cc1cc(F)c(N2C(=O)N(C)C(C)(C)C2=O)cc1SCC(F)(F)F [Example 18, 3-{2-Fluoro-4-methyl-5-[(2,2,2-trifluoroethyl)sulfanyl]phenyl}-1,5,5-trimethylimidazolidine-2,4-dione]",2.96,2.92,100,–,–,–,–
CCCCN1CC(=O)N(c2cc(SCC(F)(F)F)c(C)cc2F)C1=O [Example 202],–,–,–,3.39,3.35,100,–
Cc1cc(F)c(-n2c(=O)n(C(C)(C)C)c(=O)n2C)cc1SCC(F)(F)F [Example 94],–,–,–,3.85,3.82,–,90
Cc1cc(F)c(-n2c(=O)n(C3CC3)c(=O)n2C(C)C)cc1[S+]([O-])CC(F)(F)F (stereo not shown) [Example 64],–,–,–,2.51,2.45,90,–
CCn1c(=O)[nH]n(-c2cc(SCC(F)(F)F)c(C)cc2F)c1=O [Example 85],–,–,–,2.43,0.86,90,–
Cc1ccc(-n2c(=O)n(C(C)C)c(=O)n2C)cc1SCC(F)(F)F [Example 132],–,–,–,3.42,3.38,100,–
Cc1cc(F)c(-n2c(=O)n(C3CCCCC3)c(=O)n2C)cc1SCC(F)(F)F [Example 136],–,–,–,4.17,4.13,90,–
CCn1c(=O)n(C(C)C)c(=O)n1-c1ccc(C)c(SCC(F)(F)F)c1 [Example 133],–,–,–,3.77,3.73,100,–
CCn1c(=O)n(C(C)(C)C)c(=O)n1-c1ccc(C)c(SCC(F)(F)F)c1 [Example 134],–,–,–,4.32,4.27,100,–
Cc1cc(F)c(N2CCN(C)C2=O)cc1[S+]([O-])CC(F)(F)F (racemic) [Example 199],–,–,–,1.76,1.74,100,–
C=CCn1c(=O)n(CC(F)(F)F)n(-c2cc(SCC(F)(F)F)c(C)cc2F)c1=O [Example 154],–,–,–,3.62,3.64,100,–
Cc1cc(F)c(N2C(=O)C(=O)N(C3CC3)C2=O)cc1[S+]([O-])CC(F)(F)F (stereo not shown) [Example 183],–,–,–,2.31,–,100,–
C#CCn1c(=O)n(-c2cc(SCC(F)(F)F)c(C)cc2F)c(=O)n1C [Example 121],–,–,–,2.81,–,100,–
"Cc1cc(F)c(N2C(=O)OCC2C)cc1SCC(F)(F)F (stereo not shown) [Example 108, 3-[2-Fluoro-4-methyl-5-(2,2,2-trifluoroethylsulfanyl)phenyl]-4-methyloxazolidin-2-one]",2.92,–,90,–,–,–,–
Cc1cc(F)c(N2C(=O)C(=O)N(CC(C)(C)C)C2=S)cc1[S+]([O-])CC(F)(F)F (stereo not shown) [Example 195],–,–,–,3.85,3.79,90,–
Cc1cc(F)c(N2C(=O)C3(CCC3)C(=O)N2C)cc1[S+]([O-])CC(F)(F)F (stereo not shown) [Example 180],–,–,–,1.99,1.97,100,–
Cc1cc(F)c(-n2c(=O)n(C(C)(C)C)c(=O)n2CC(F)(F)F)cc1SCC(F)(F)F [Example 147],–,–,–,4.34,4.28,100,–
COCCCn1c(=O)n(C)n(-c2cc(SCC(F)(F)F)c(C)cc2F)c1=O [Example 159],–,–,–,2.96,2.95,100,–
CCCCN1CC(=O)N(c2cc([S+]([O-])CC(F)(F)F)c(C)cc2F)C1=O (stereo not shown) [Example 203],–,–,–,2.47,2.43,90,–

SMILES,"chromatographic logP [1, 3]","chromatographic logP [1, 4]",pest or weed control at 500 g/ha ([2]; application rate 500 g/ha) [%],logP (HCOOH) [1],logP (neutral) [1],efficacy in % ([2]; application rate 500 g/ha) [%],efficacy in % ([2]; application rate 100 g/ha) [%]
Cc1cc(F)c(-n2c(=O)n(C3CC3)c(=O)n2C(C)C)cc1SCC(F)(F)F [Example 65],–,–,–,3.59,3.51,100,–
"Cc1cc(F)c(N2C(=O)N(C)C(C)(C)C2=O)cc1[S+]([O-])CC(F)(F)F (stereo not shown) [Example 17, 3-{2-Fluoro-4-methyl-5-[(2,2,2-trifluoroethyl)sulfinyl]phenyl}-1,5,5-trimethylimidazolidine-2,4-dione]",2.04,2.01,100,–,–,–,–
C=CCn1c(=O)n(C2CC2)c(=O)n1-c1ccc(C)c([S+]([O-])CC(F)(F)F)c1 (stereo not shown) [Example 49],–,–,–,2.28,2.24,90,–
Cc1cc(F)c(N2C(=O)C(=O)N(C(C)(C)C)C2=S)cc1[S+]([O-])CC(F)(F)F (stereo not shown) [Example 196],–,–,–,3.45,3.41,90,–
"Cc1cc(F)c(N2CCOC2=O)cc1[S+]([O-])CC(F)(F)F (stereo not shown) [Example 105, 3-[2-Fluoro-4-methyl-5-(2,2,2-trifluoroethylsulfinyl)phenyl]oxazolidin-2-one]",1.64,–,90,–,–,–,–
CCn1c(=O)n(-c2cc(SCC(F)(F)F)c(C)cc2F)n(C(C)(C)C)c1=O [Example 142],–,–,–,4.19,4.13,100,–
Cc1cc(F)c(N2C(=O)CN(Cc3ccccc3)C2=O)cc1[S+]([O-])CC(F)(F)F (stereo not shown) [Example 205],–,–,–,2.60,2.52,90,–
"CCn1c(=O)n(-c2ccccc2)c(=O)n1-c1cc(SCC(F)(F)F)c(C)cc1F [Example 87, 1-Ethyl-2-{2-fluoro-4-methyl-5-[(2,2,2-trifluoroethyl)sulfanyl]phenyl}-4-phenyl-1,2,4-triazolidine-3,5-dione]",3.71,3.69,90,–,–,–,–
"Cc1ccc(-n2c(=O)n(C)c(=O)n2C)cc1[S+]([O-])CC(F)(F)F (stereo not shown) [Example 21, 1,4-Dimethyl-2-{4-methyl-3-[(2,2,2-trifluoroethyl)sulfinyl]phenyl}-1,2,4-triazolidine-3,5-dione]",1.63,1.63,100,–,–,–,–
Cc1cc(F)c(N2C(=O)N(C)C(=O)C2C)cc1SCC(F)(F)F (stereo not shown) [Example 212],–,–,–,2.92,–,90,–
Cc1cc(F)c(-n2c(=O)n(-c3ccccc3)c(=O)n2C)cc1[S+]([O-])CC(F)(F)F (stereo not shown) [Example 163],–,–,–,2.44,2.38,90,–
Cn1c(=O)n(C2CC2)c(=O)n1-c1ccc(Cl)c([S+]([O-])CC(F)(F)F)c1 (stereo not shown) [Example 39],–,–,–,2.20,2.17,100,–
Cc1cc(F)c(N2C(=O)C(=O)N(CC(C)(C)C)C2=S)cc1SCC(F)(F)F [Example 192],–,–,–,4.89,4.80,90,–
Cc1cc(F)c(-n2c(=O)n(-c3ccccc3)c(=O)n2C)cc1SCC(F)(F)F [Example 162],–,–,–,3.42,3.27,–,100
Cc1cc(F)c(-n2c(=O)n(-c3ccccc3)c(=O)n2CC(F)(F)F)cc1[S+]([O-])CC(F)(F)F (stereo not shown) [Example 167],–,–,–,3.05,3.01,90,–
Cc1ccc(-n2c(=O)n(C)c(=O)n2-c2ccc(C)c([S+]([O-])CC(F)(F)F)c2)cc1[S+]([O-])CC(F)(F)F (stereo not shown) [Example 82],–,–,–,2.67,2.61,90,–
CCC1(CC)C(=O)N(C)N(c2cc(SCC(F)(F)F)c(C)cc2F)C1=O [Example 175],–,–,–,3.41,3.40,100,–
Cc1cc(F)c(-n2c(=O)n(CC3CC3)c(=O)n2C)cc1SCC(F)(F)F [Example 161],–,–,–,3.39,3.34,100,–
